Measurements published in PubChem BioAssay AID504702 (Southern Research Specialized Biocontainment Screening …, 2011).
pIC50: −log10 of the molar value. Several values for one entry are separate records, joined by “and”; a condition that tells them apart may be missing. Equal entries are not always repeated. Activity calls are given as the source filed them. The rule behind the calls is not given here.

Experiments:
[1] = M. tuberculosis growth inhibition with meropenem, dose response, H37Rv, set 2 (AID 504702);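 note: growth read by Alamar Blue after 7 days plus overnight incubation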; details: M. tuberculosis H37Rv with meropenem, growth inhibition
[2] = system: M. tuberculosis H37Rv with meropenem, growth inhibition; assay: as above; details: for IC90: measured here: IC90 growth with meropenem

| SMILES | growth inhibition ([1]; at 25 µM (top of the series)) | IC90 [2] | further results |
| --- | --- | --- | --- |
| Cc1ccc(OCC(=O)Nc2nc3c(Cl)cccc3s2)cc1 | -2.68% (inactive) | – | – |
| COc1ccc2nc(NC(=O)C(C)Oc3ccccc3)sc2c1 (stereo unspecified) | -2.23% (inactive) | – | – |
| CCOc1ccc2nc(NC(=O)Cc3ccc(OC)cc3)sc2c1 | -9.77% (inactive) | – | – |
| CC(C)Cn1c2c(c(O)c(C(=O)Nc3nccs3)c1=O)CCCC2 | -0.17% (inactive) | – | growth inhibition ([1]; at 18.8 µM (top of the series)): 3.14% (inactive) |
| CCOc1ccc2nc(NC(=O)COc3ccc(Cl)c(C)c3)sc2c1 | -5.37% (inactive) | – | – |
| COC(=O)c1c(C)n(-c2ccccc2)c2ccc(O)cc12 | – | > 18.8 µM | pIC50 [2]: 5.07 |
| Cc1ccccc1OCC(=O)Nc1ccccc1N1CCCCC1 | – | > 25 µM | pIC50 [2]: 5.21 and 5.05 |
| Cc1cc2cc(Cl)ccc2[nH]1 | 0.31% (inactive) | – | – |
| CCC(CC)c1nnc(NC(=O)c2ccc(N3CCCCC3)c([N+](=O)[O-])c2)s1 | 2.49% (inactive) | – | – |
| O=C(Nc1nc2ccccc2[nH]1)c1cc2cc(Br)ccc2o1 | -2.41% (inactive) | – | – |
| COc1ccc2nc(NC(=O)COc3c(C)cc(C)cc3C)sc2c1 | -3.9% (inactive) | – | – |
| CCCOc1ccc2c(c1)c(C(C)=O)c(C)n2-c1ccccc1 | 20.4% (inactive) | – | – |
| Cc1cc2cc(F)ccc2[nH]1 | 1.92% (inactive) | – | – |
| CCOc1ccc2c(c1)c(C(C)=O)c(C)n2-c1ccccc1 | – | > 18.8 µM and 2.79 µM | pIC50 [2]: 6.18 and 6.28 |
| CCOc1ccc2nc(NC(=O)C(C)Oc3ccccc3F)sc2c1 (stereo unspecified) | 2.03% (inactive) | – | – |
| O=C(O)CCC(=O)Nc1nc2ccccc2s1 | -2.73% (inactive) | – | – |
| COc1cccc(NC(=S)Nc2cc(C)cc(C)n2)c1 | – | > 25 µM | pIC50 [2]: 5.14 |
| CCC(=O)N/C(N)=N/c1nc2ccccc2o1 | -1.89% (inactive) | – | – |
| Cc1ccccc1C(=O)Nc1nc2ccccc2[nH]1 | – | > 25 µM | pIC50 [2]: 5.06 |
| Cc1cccc(C)c1OCC(=O)Nc1nc2ccc(Cl)cc2s1 | -2.26% (inactive) | – | – |
| COc1ccc2nc(NC(=O)COc3ccc(Cl)cc3)sc2c1 | 0.35% (inactive) | – | – |
| CCOc1ccc2nc(NC(=O)COc3ccc(OC)cc3)sc2c1 | -8.22% (inactive) | – | – |
| CC(=O)c1c(C)n(-c2ccccc2)c2ccc(OS(=O)(=O)C(F)(F)F)cc12 | – | > 25 µM | – |
| CC(=O)c1c(C)n(-c2ccccc2)c2ccc(OC(C)C)cc12 | 8.61% (inactive) | – | – |
| CCOc1ccc2nc(NC(=O)C3(c4ccccc4)CCCC3)sc2c1 | – | 4.16 µM | pIC50 [2]: 5.92 |
| Cc1ccc(OCC(=O)Nc2ccc(Cl)cc2)c(C)c1 | -3.91% (inactive) | – | – |
| COc1ccc2nc(NC(=O)c3oc4ccccc4c3C)sc2c1 | -4.34% (inactive) | – | – |

| SMILES | growth inhibition ([1]; at 25 µM (top of the series)) | IC90 [2] | further results |
| --- | --- | --- | --- |
| Cc1ccccc1OCC(=O)Nc1nnn(C)n1 | 0.35% (inactive) | – | – |
| Cc1cccnc1NC(=S)NC(=O)c1cncc(Br)c1 | – | > 25 µM | pIC50 [2]: 5.57 |
| N/C(=N\c1nc2ccccc2o1)NC(=O)c1ccc(F)cc1 | – | > 25 µM | pIC50 [2]: 5.02 |
| O=C(Nc1nc2ccccc2[nH]1)c1ccc(Cl)c(Cl)c1 | – | > 25 µM | pIC50 [2]: 6.09 |
| CCOc1ccc2nc(NC(=O)COc3ccc(F)cc3)sc2c1 | -3.93% (inactive) | – | – |
| Cc1ccccc1OCC(=O)Nc1ncccn1 | 3.04% (inactive) | – | – |
| OCCCc1cn(-c2ccccc2)c2ccccc12 | – | > 25 µM | pIC50 [2]: 4.85 |
| N/C(=N\c1nc2cc(Cl)ccc2o1)NC(=O)c1ccccc1 | -0.66% (inactive) | – | – |
| O=C(CSc1n[nH]c(=O)n1C1CC1)c1ccc2c(c1)OCCO2 | – | > 25 µM | pIC50 [2]: 5.34 |
| CCOC(=O)c1c(C)[nH]c2ccccc12 | -5.69% (inactive) | – | – |
| O=C(COC(=O)C1CC1)c1c[nH]c2ccccc12 | – | > 25 µM | pIC50 [2]: 6.60 and 6.19 |
| Cc1ccc(OC(C)C(=O)Nc2ncccn2)c(C)c1 (stereo unspecified) | 3.48% (inactive) | – | – |
| CC(=O)c1c(C)n(-c2cccc(Cl)c2)c2ccc(O)cc12 | -2.38% (inactive) | – | – |
| O=C(COc1ccc(Cl)cc1)Nc1nc2ccc(F)cc2s1 | -1.17% (inactive) | – | – |
| Cc1cccc(C)c1OCC(=O)Nc1nc2ccccc2s1 | -9.19% (inactive) | – | – |
| CC(C)(C)c1ccc(OCC(=O)Nc2nc3ccccc3s2)cc1 | -9.97% (inactive) | – | – |
| Cc1onc(-c2c(Cl)cccc2Cl)c1/C(N)=N/OC(=O)C1CC1 | – | > 25 µM | pIC50 [2]: 5.83 |
| CC(=O)Nc1ccc2nc(NC(=O)COc3ccccc3)sc2c1 | -0.49% (inactive) | – | – |
| CC(Oc1ccccc1)C(=O)Nc1nc2ccc(S(C)(=O)=O)cc2s1 (stereo unspecified) | -1.72% (inactive) | – | – |
| COc1ccc2c(c1)cc(C)n2-c1ccccc1 | – | > 25 µM | pIC50 [2]: 5.16 |
| Cc1c(OCc2ccc(C(=O)O)cc2)ccc2c(-c3ccccc3)cc(=O)oc12 | – | > 25 µM | pIC50 [2]: 5.48 and 5.40 |
| Cc1ccc(OCC(=O)Nc2nnn(C)n2)c(C)c1 | -3.74% (inactive) | – | – |
| O=C(COc1ccc2c3c(c(=O)oc2c1)CCC3)Nc1nc2ccccc2[nH]1 | -4.95% (inactive) | – | – |
| CC(=O)Nc1ccc2nc(NC(=O)Cc3ccccc3)sc2c1 | -7.72% (inactive) | – | – |
| CCOc1ccc(NC(=O)COc2ccc(C)cc2C)cc1 | -3.23% (inactive) | – | – |
| Cc1ccc(OCC(=O)Nc2cccc3c(NC(=O)COc4ccc(C)cc4C)cccc23)c(C)c1 | -7.16% (inactive) | – | – |
| O=C(Nc1ccccc1)Nc1csc2ccccc12 | – | > 25 µM | pIC50 [2]: 6.31 and 6.70 |
